Values joined by “and” are separate entries in the source; they are usually repeats but may differ in a detail not shown here. Equal entries are not always repeated.
Legend:
ovalbumin-induced asthma [1] = test: Ovalbumin-induced asthma, treatment of chronic asthma model (BAL cells, lung histology); type: in vivo, BALB/c mice; conditions: Mean ± SE
Method: • Twelve-week-old Balb/c mice were administered 10 μg (100 μl) ovalbumin (OVA) dissolved with 3 mg Al(OH)3 in 0.9% saline intraperitoneally (i.p.) on days 0, 7 and 14, and 10 μg (50 μl) OVA intranasally (i.n.) on days 20, 23, 25, 27, 29, 31, 34, 36, 37, 41, 43 and 45. For intranasal administration, mice were anesthetized with inhaled N-flurane and instilled with OVA i.n. with a micropipette. • Three-week-old BALB/c mice were sensitized (×3) with intra-peritoneal (i/p) injection (100 μl OVA solution, containing 0.3 mg OVA and 6.7 mg Al(OH)3, in 1 ml PBS) on days 0, 7 and 14. On days 14, 15, 17, 21 and 23 the mice were further sensitized with intranasal sprinklings (50 μl, each) of OVA in PBS solution containing 2 mg/ml OVA, as following: mice were anesthetized with inhaled N-flurane and instilled with OVA intra-nasally using a micropipette. Twenty-four hours after the last administration of OVA, the mice were sacrificed. Methacholine Challenge and Collection of Histologic Sections and Biochemical Samples
Either Zn-DFO, Ga-DFO, Zn-DFO and Ga-DFO 1:1 combination (herein metal complexes) or saline were administered as follows: on days −5, −1, 7 and 14, 1 mg/kg body weight metal complexes or saline were administered intraperitoneally (i.p.). On days 0, 6, 8, 13 and 15, 0.3 mg/kg body weight metal complexes or saline were administered i.p. On days 20, 23, 25, 27, 29, 31, 34, 36, 37, 41, 43 and 45, 0.3 mg/kg body weight metal complexes or saline were administered intranasally (i.n.). Twenty-four hours after the last sensitization, mice were anesthetized with urethane and the lungs were lavaged 4 times with 0.5 ml sterile PBS. Animals in the “control” group (non-asthmatic—saline treated, but not sensitized) (n=6) received saline injections and instillations, using the same regime as the asthmatic and treated animals. Animals of the “asthmatic” group (sensitized and saline-treated, rather than complex-treated) (n=6) received saline instead of the respective complex, under the same regime.
For the treatment of chronic asthma model, a similar experimental protocol was followed, with the following modifications: 1 mg/kg body weight metal complexes or saline were administered i.p. on day 0 (instead of days −5 and −1) and a further 0.3 mg/kg complexes or saline were administered on day 1. In this model, the effects of the complexes were investigated further by histological examination of lung sections stained with either haematoxylin-eosine or PAS/AB (periodic acid-Schiff/alcan blue).
(§1) To estimate the anti-asthmatic effect of the complexes the following parameters were measured: the concentration of ferritin in the lungs, the presence of inflammatory cells infiltration into the lungs, and the amounts of macrophages, eosinophils, lymphocytes and neutrophils in bronchoalveolar lavages (BALs).

[2] = tested on: high energy diet-induced Type II diabetes; test: Sand rat high energy diet Type II diabetes model, glucose tolerance test and cataract formation (Example 6); type: in vivo, sand rat (Psammomis obesus); conditions: for three hours response to an orally-administered glucose dose, value above the zero (standard diet Group I): 200 mg glucose per 100 g body weight, end of 53 day experiment, high energy diet; for Cataract formation: high energy diet (HE) sand rats, 53 days
Source text: (§2) Sand rats (Psammomis Obesus) were used as a model for Type 2 diabetes. The sand rats transferred onto high energy diet develop a severe form of Type 2 diabetes, including high blood glucose level, increase in body weight, and cataract development (eye lens opacification).
(§3) The sand rats were divided into groups. The animals from the Group I received the standard diet, serving as a control, whereas animals from the other indicated groups received high energy diet, leading to diabetes development. The high-energy diet ed mice were either untreated, or treated with intra-peritoneal injections of 2.5 mg/kg body weight Ga-DFO, Zn-DFO, DFO alone, Zn, Ga or lipoic acid (LA), either twice or three times per week, as indicated, for the duration of the experiment. The blood glucose and body weight of the animals were monitored throughout the experiment.
Forty two sand rats were divided into seven groups, six animals in each. The animals from Group I received the standard diet and used as a control. The animals from the Groups II, III, IV, V, VI and VII received high energy diet, leading to diabetes development, while Groups III, IV and VII were treated with Zn-DFO, Ga-DFO and DFO alone, respectively. The Groups V and VI received Zn and Ga, in their chloride salt form, alone respectively. Administration of the different treatments was as described, and the experiment lasted for 53 days. Glucose tolerance test was performed at the end of experiment. The cataract formation was tested as well.

[3] = tested on: high energy diet-induced Type II diabetes; test: Sand rat high energy diet Type II diabetes model, blood glucose and body weight (Example 5); type: in vivo, sand rat (Psammomis obesus)
Source text: as §2, §3
The sand rats were divided into four groups (6 animals in each). Animals from Group I received the standard diet, serving as a control. The animals from the Groups II, III and W received high energy diet, leading to diabetes development, while Groups III and IV were treated with Ga-DFO and lipoic acid (LA), respectively. The intra-peritoneal injections of 2.5 mg Ga-DFO or LA per kg body weight were performed twice a week, for 61 days. The blood glucose and body weight of the animals were monitored during all the experiment.

[4] = complex of desferrioxamine with the named metal ion; cited from earlier work
ovalbumin-induced asthma [5] = test: Ovalbumin-induced asthma, prophylactic treatment model (lung ferritin); type: in vivo, BALB/c mice; conditions: asthmatic mice, 1 and 0.3 mg/kg i.p., then 0.3 mg/kg i.n.
Method: Ferritin concentration was quantified using an indirect ‘sandwich’ ELISA assay in accordance with a procedure developed previously in our laboratory. Briefly, ELISA 96-well micro plates were pre-coated with goat anti-human L-ferritin antibody. Rabbit anti-human H-ferritin was used as the secondary antibody. Plates were treated with goat anti-rabbit IgG conjugated with β-galactosidase. Chlorophenol Red-β-D-Galactopyranoside was then added and the plates analyzed using a microplate reader with a test (570 nm) and reference (630 nm) filters.
• Twelve-week-old Balb/c mice were administered 10 μg (100 μl) ovalbumin (OVA) dissolved with 3 mg Al(OH)3 in 0.9% saline intraperitoneally (i.p.) on days 0, 7 and 14, and 10 μg (50 μl) OVA intranasally (i.n.) on days 20, 23, 25, 27, 29, 31, 34, 36, 37, 41, 43 and 45. […]
as §1

[6] = pH limit of the complex solution during preparation (loss of biological activities); type: physicochemical; conditions: pH above 5.6; solution reacts with air-containing CO2
[7] = Day 0, 2.5 mg/kg i.p. twice a week, mean, SD in the line below
[8] = Day 7, 2.5 mg/kg i.p. twice a week
[9] = Day 21, 2.5 mg/kg i.p. twice a week
[10] = Day 21, 2.5 mg/kg i.p. twice a week, 2.5 mg/kg
[11] = Day 32, 2.5 mg/kg i.p. twice a week
[12] = Day 42, 2.5 mg/kg i.p. twice a week
[13] = Day 49, 2.5 mg/kg i.p. twice a week
[14] = Day 56, 2.5 mg/kg i.p. twice a week
[15] = Day 61, 2.5 mg/kg i.p. twice a week
[16] = Day 61, 2.5 mg/kg i.p. twice a week, 2.5 mg/kg

| SMILES | three hours response to an orally-administered glucose dose, value above the zero (standard diet Group I) [2] | Cataract formation [2] | Blood glucose level [3, 7] | Body weight [3, 7] | Blood glucose level [3, 8] | Body weight [3, 8] | Body weight [3, 9] | Blood glucose level [3, 10] | Blood glucose level [3, 11] | Body weight [3, 11] | Blood glucose level [3, 12] | Body weight [3, 12] | Blood glucose level [3, 13] | Body weight [3, 13] | Blood glucose level [3, 14] | Body weight [3, 14] | Body weight [3, 15] | Blood glucose level [3, 16] | relative stability constants for the complexes of desferrioxamine [4] | further results |
| --- | --- | --- | --- | --- | --- | --- | --- | --- | --- | --- | --- | --- | --- | --- | --- | --- | --- | --- | --- | --- |
| CC(=O)N([O-])CCCCCNC(=O)CCC(=O)N([O-])CCCCCNC(=O)CCC(=O)N([O-])CCCCCN.[Ga+3] [Ga-DFO, gallium-desferrioxamine] | 5 mg/dL | 11% | 91.8 mg/dL | 131.6 g | 94.6 mg/dL | 154.0 g | 173.2 g | 176 ± 46 mg/dL and 176.4 mg/dL | 81.2 mg/dL | 180.4 g | 89.0 mg/dL | 192.4 g | 122.0 mg/dL | 204.0 g | 129.2 mg/dL | 212.4 g | 214.4 g | 98 ± 29 mg/dL and 97.8 mg/dL | 10^28 | Eosinophils in BAL fluid (ovalbumin-induced asthma [1]): 0.2 ± 0.02^# 10^4 cells/ml; Lymphocytes in BAL fluid (ovalbumin-induced asthma [1]): 0.3 ± 0.06^# 10^4 cells/ml; Macrophages in BAL fluid (ovalbumin-induced asthma [1]): 3.3 ± 0.2^# 10^4 cells/ml; Neutrophils in BAL fluid (ovalbumin-induced asthma [1]): 0.3 ± 0.07^# 10^4 cells/ml; Total WBC in BAL fluid (ovalbumin-induced asthma [1]): 4.5 ± 0.6^# 10^4 cells/ml; lung ferritin level (ovalbumin-induced asthma [5]): 0.5 ± 0.3 µg/mg; effect of higher pH on the Ga-DFO solution [6]: marked loss of the biological activities |
| O=C(O)CCCCC1CCSS1 (stereo not shown) [LA, Lipoic acid, reference compound] |  |  | 92.8 mg/dL | 113.4 g | 97.4 mg/dL | 137.0 g | 160.4 g | 259 ± 49 mg/dL and 259.4 mg/dL | 176.4 mg/dL | 170.2 g | 196.4 mg/dL | 189.2 g | 185.2 mg/dL | 201.4 g | 220.6 mg/dL | 211.8 g | 218.0 g | 168 ± 33 mg/dL and 167.8 mg/dL |  |  |
| [Cl-].[Cl-].[Cl-].[Ga+3] [Ga, Gallium (III) chloride] | 25 mg/dL | 36% |  |  |  |  |  |  |  |  |  |  |  |  |  |  |  |  |  |  |
| CC(=O)N([O-])CCCCCNC(=O)CCC(=O)N([O-])CCCCCNC(=O)CCC(=O)N([O-])CCCCCN.[Fe+3] [Fe(III), reference compound] |  |  |  |  |  |  |  |  |  |  |  |  |  |  |  |  |  |  | 10^31 |  |
| CC(=O)N(O)CCCCCNC(=O)CCC(=O)N(O)CCCCCNC(=O)CCC(=O)N(O)CCCCCN [DFO, N′-{5-[acetyl(hydroxy)amino]pentyl}-N-[5-({4-[(5-aminopentyl)(hydroxy)amino]-4-oxobutanoyl}amino)pentyl]-N-hydroxy-succinamide] | 150 mg/dL | 25% |  |  |  |  |  |  |  |  |  |  |  |  |  |  |  |  |  |  |
| [Cl-].[Cl-].[Zn+2] [Zn, Zinc chloride] | 38 mg/dL | 22% |  |  |  |  |  |  |  |  |  |  |  |  |  |  |  |  |  |  |

Source: patent US9770430B2, “Desferrioxamine-metal complexes for the treatment of immune-related disorders” (priority 2009, dated 2017)
